Data taken from patent US10766893B2 (priority 2017, dated 2020).

Columns and labels:
Experiment in all cases: biochemical
Format in all cases: biochemical
Details in all cases: 15 nM tritium labelled cAMP, 1 hr at room temperature
PDE1B = PDE1B (Homo sapiens (Human), UniProt Q01064)
Source text: (§1) Table 1 lists the IC50 value for inhibition of PDE1 by the compounds of the invention. […] PDE1 assays are described in the Experimental Section.

PDE1C = PDE1C (Homo sapiens (Human), UniProt Q14123)
PDE1C, sequence (Q14123 whole entry): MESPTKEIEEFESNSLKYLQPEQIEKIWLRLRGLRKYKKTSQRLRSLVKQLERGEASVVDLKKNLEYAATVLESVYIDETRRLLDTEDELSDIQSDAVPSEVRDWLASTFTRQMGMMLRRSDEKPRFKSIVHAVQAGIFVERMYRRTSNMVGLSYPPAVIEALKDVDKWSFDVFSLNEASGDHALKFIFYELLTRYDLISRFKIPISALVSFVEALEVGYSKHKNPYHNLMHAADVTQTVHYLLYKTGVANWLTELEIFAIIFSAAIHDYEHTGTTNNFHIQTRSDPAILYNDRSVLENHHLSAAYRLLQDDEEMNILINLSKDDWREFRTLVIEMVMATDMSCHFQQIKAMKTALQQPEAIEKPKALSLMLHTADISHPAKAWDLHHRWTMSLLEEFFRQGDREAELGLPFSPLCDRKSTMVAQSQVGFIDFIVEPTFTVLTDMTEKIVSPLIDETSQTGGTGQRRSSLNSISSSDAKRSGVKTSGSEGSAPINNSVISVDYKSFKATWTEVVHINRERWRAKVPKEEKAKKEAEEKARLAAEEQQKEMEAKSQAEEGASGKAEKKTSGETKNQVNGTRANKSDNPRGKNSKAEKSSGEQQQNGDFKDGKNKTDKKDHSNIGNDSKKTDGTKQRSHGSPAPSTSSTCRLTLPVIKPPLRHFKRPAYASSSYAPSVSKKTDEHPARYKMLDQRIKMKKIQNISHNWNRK
Source text: as §1

PDE1A = PDE1A (Homo sapiens (Human), UniProt P54750)
PDE1A, sequence (P54750 whole entry): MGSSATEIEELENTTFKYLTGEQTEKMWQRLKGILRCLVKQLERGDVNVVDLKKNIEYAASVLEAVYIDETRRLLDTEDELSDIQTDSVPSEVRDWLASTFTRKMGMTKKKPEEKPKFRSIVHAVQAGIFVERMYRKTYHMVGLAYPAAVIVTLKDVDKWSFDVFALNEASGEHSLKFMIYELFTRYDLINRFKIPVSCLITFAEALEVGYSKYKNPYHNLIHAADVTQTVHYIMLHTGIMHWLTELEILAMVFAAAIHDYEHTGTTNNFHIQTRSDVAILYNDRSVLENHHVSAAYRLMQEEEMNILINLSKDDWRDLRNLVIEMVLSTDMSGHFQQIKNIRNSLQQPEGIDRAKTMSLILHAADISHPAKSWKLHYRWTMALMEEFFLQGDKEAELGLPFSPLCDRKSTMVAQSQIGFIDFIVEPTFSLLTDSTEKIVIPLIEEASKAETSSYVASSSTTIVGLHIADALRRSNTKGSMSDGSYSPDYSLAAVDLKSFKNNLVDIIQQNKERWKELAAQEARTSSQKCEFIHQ
Source text: as §1

PDE1B, sequence (Q01064 whole entry): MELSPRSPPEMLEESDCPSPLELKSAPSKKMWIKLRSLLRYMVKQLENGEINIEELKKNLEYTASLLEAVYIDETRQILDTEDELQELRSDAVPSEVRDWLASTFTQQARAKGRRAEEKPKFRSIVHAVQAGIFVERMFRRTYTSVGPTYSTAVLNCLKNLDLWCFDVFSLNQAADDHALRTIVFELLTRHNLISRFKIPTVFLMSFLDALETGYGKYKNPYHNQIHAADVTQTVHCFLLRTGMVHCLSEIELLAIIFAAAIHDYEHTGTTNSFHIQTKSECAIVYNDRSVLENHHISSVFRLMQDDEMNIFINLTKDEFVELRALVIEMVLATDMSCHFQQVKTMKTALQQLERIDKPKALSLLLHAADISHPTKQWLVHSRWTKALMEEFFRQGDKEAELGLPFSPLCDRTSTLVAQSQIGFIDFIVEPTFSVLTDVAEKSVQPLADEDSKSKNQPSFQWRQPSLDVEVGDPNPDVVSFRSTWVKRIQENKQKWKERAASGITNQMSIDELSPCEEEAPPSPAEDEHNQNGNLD

SMILES	IC50 (PDE1B) [nM]	IC50 (PDE1C) [nM]	IC50 (PDE1A) [nM]
Cc1nn(C(C)C)c2c(NCc3cnn(C)c3)cc(-c3cccc4cc[nH]c34)nc12 [Example 38b, 5-(1H-indol-7-yl)-1-isopropyl-3-methyl-N-[(1-methylpyrazol-4-yl)methyl]pyrazolo[4,3-b]pyridin-7-amine]	100	350	590
CCOc1cnccc1-c1cc(NCc2cccc(F)n2)c2c(n1)c(C)nn2C(C)C [Example 12b, 5-(3-ethoxy-4-pyridyl)-N-[(6-fluoro-2-pyridyl)methyl]-1-isopropyl-3-methyl-pyrazolo[4,3-b]pyridin-7-amine]	1.1	61	22
CCOc1ncccc1-c1cc(NCc2ccc3oc(C)nc3c2)c2c(n1)c(C)nn2C(C)C [Example 12a, 5-(2-ethoxy-3-pyridyl)-1-isopropyl-3-methyl-N-[(2-methyl-1,3-benzoxazol-5-yl)methyl]pyrazolo[4,3-b]pyridin-7-amine]	0.81	31	8.7
CCOc1ncccc1-c1cc(NCc2cccc3nc(C)nn23)c2c(n1)c(C)nn2C(C)C [Example 7a, 5-(2-ethoxy-3-pyridyl)-1-isopropyl-3-methyl-N-[(2-methyl-[1,2,4]triazolo[1,5-a]pyridin-5-yl)methyl]pyrazolo[4,3-b]pyridin-7-amine]	0.93	35	11
CCOc1nnccc1-c1cc(NCc2cnc(C)s2)c2c(n1)c(C)nn2C(C)C [Example 20b, 5-(3-ethoxypyridazin-4-yl)-1-isopropyl-3-methyl-N-[(2-methylthiazol-5-yl)methyl]pyrazolo[4,3-b]pyridin-7-amine]	1.1	24	5.7
CCOc1nnccc1-c1cc(NCc2cnn(C)c2)c2c(n1)c(C)nn2C(C)CC (single isomer, unassigned) [Example 5b, 5-(3-ethoxypyridazin-4-yl)-3-methyl-N-[(1-methylpyrazol-4-yl)methyl]-1-[1-methylpropyl]pyrazolo[4,3-b]pyridin-7-amine]	6.1	102	25
CCOc1nnccc1-c1cc(NCc2nccc(C)n2)c2c(n1)c(C)nn2C(C)C [Example 11b, 5-(3-ethoxypyridazin-4-yl)-1-isopropyl-3-methyl-N-[(4-methylpyrimidin-2-yl)methyl]pyrazolo[4,3-b]pyridin-7-amine]	4.4	160	38
CCOc1cnccc1-c1cc(NCc2ncn(C)n2)c2c(n1)c(C)nn2C(C)C [Example 19b, 5-(3-ethoxy-4-pyridyl)-1-isopropyl-3-methyl-N-[(1-methyl-1,2,4-triazol-3-yl)methyl]pyrazolo[4,3-b]pyridin-7-amine]	0.91	22	11
Cc1nn(C(C)C)c2c(NCc3cnn(C)c3)cc(-c3cccc4ncoc34)nc12 [Example 37b, 5-(1,3-benzoxazol-7-yl)-1-isopropyl-3-methyl-N-[(1-methylpyrazol-4-yl)methyl]pyrazolo[4,3-b]pyridin-7-amine]	2.4	14	16
CCOc1cnccc1-c1cc(NCc2cnn(C)c2)c2c(n1)c(C)nn2C(C)C [Example 28b, 5-(3-ethoxy-4-pyridyl)-1-isopropyl-3-methyl-N-[(1-methylpyrazol-4-yl)methyl]pyrazolo[4,3-b]pyridin-7-amine]	2.1	33	
CCOc1cnccc1-c1cc(NCc2nnc(C)o2)c2c(n1)c(C)nn2C(C)C [Example 34b, 5-(3-ethoxy-4-pyridyl)-1-isopropyl-3-methyl-N-[(5-methyl-1,3,4-oxadiazol-2-yl)methyl]pyrazolo[4,3-b]pyridin-7-amine]	7	130	49
CCOc1ncccc1-c1cc(NCc2cccc3ncnn23)c2c(n1)c(C)nn2C(C)C [Example 6a, 5-(2-ethoxy-3-pyridyl)-1-isopropyl-3-methyl-N-([1,2,4]triazolo[1,5-a]pyridin-5-ylmethyl)pyrazolo[4,3-b]pyridin-7-amine]	1.4	64	18
CCOc1nnccc1-c1cc(NCc2ncccn2)c2c(n1)c(C)nn2C(C)C [Example 1b, 5-(3-ethoxypyridazin-4-yl)-1-isopropyl-3-methyl-N-(pyrimidin-2-ylmethyl)pyrazolo[4,3-b]pyridin-7-amine]	1.3	48	11
CCOc1cnccc1-c1cc(NCc2cnc(C)s2)c2c(n1)c(C)nn2C(C)C [Example 21b, 5-(3-ethoxy-4-pyridyl)-1-isopropyl-3-methyl-N-[(2-methylthiazol-5-yl)methyl]pyrazolo[4,3-b]pyridin-7-amine]	0.64	14	5.6
CCOc1nnccc1-c1cc(NCc2cccnc2OC)c2c(n1)c(C)nn2C(C)C [Example 7b, 5-(3-ethoxypyridazin-4-yl)-1-isopropyl-N-[(2-methoxy-3-pyridyl)methyl]-3-methyl-pyrazolo[4,3-b]pyridin-7-amine]	1.7		11
CCOc1nnccc1-c1cc(NCc2ccccn2)c2c(n1)c(C)nn2C(C)C [Example 14b, 5-(3-ethoxypyridazin-4-yl)-1-isopropyl-3-methyl-N-(2-pyridylmethyl)pyrazolo[4,3-b]pyridin-7-amine]	1.1	53	
CCOc1nnccc1-c1cc(NCc2cccc(OC)n2)c2c(n1)c(C)nn2C(C)C [Example 24b, 5-(3-ethoxypyridazin-4-yl)-1-isopropyl-N-[(6-methoxy-2-pyridyl)methyl]-3-methyl-pyrazolo[4,3-b]pyridin-7-amine]	1.4	71	
CCOc1nnccc1-c1cc(NCc2cc(C)[nH]n2)c2c(n1)c(C)nn2C(C)C [Example 22b, 5-(3-ethoxypyridazin-4-yl)-1-isopropyl-3-methyl-N-[(5-methyl-1H-pyrazol-3-yl)methyl]pyrazolo[4,3-b]pyridin-7-amine]	0.4	15	
CCOc1ncccc1-c1cc(NCc2cccn3cnnc23)c2c(n1)c(C)nn2C(C)C [Example 3a, 5-(2-ethoxy-3-pyridyl)-1-isopropyl-3-methyl-N-([1,2,4]triazolo[4,3-c]pyridin-8-ylmethyl)pyrazolo[4,3-b]pyridin-7-amine]	0.32		4.7
CCOc1nnccc1-c1cc(NCc2cccc(F)n2)c2c(n1)c(C)nn2C(C)C [Example 26b, 5-(3-ethoxypyridazin-4-yl)-N-[(6-fluoro-2-pyridyl)methyl]-1-isopropyl-3-methyl-pyrazolo[4,3-b]pyridin-7-amine]		44	6.5
CCOc1nnccc1-c1cc(NCc2cccc3oc(C)nc23)c2c(n1)c(C)nn2C(C)C [Example 14a, 5-(3-ethoxypyridazin-4-yl)-1-isopropyl-3-methyl-N-[(2-methyl-1,3-benzoxazol-4-yl)methyl]pyrazolo[4,3-b]pyridin-7-amine]	0.21		9.3
Cc1nc2c(-c3cc(NCc4cnn(C)c4)c4c(n3)c(C)nn4C(C)C)cccc2o1 [Example 35b, 1-isopropyl-3-methyl-5-(2-methyl-1,3-benzoxazol-4-yl)-N-[(1-methylpyrazol-4-yl)methyl]pyrazolo[4,3-b]pyridin-7-amine]		43	39
